US20260356856A1, “KRAS G12S AND G12C INHIBITORS” (MIRATI THERAPEUTICS, INC., priority 2023, published 2026)
Blank lines part the entries; values can stand above or below the compound they belong to.

Assays:
[1] = target: T1, KRas-mediated phosphorylation of ERK in MKN1 cells (Homo sapiens, UniProt P01116); assay: Inhibition of KRas-mediated phosphorylation of ERK (HTRF), MKN1 cells; format: cell-based; settings: MKN1 cells (KRas WT); HTRF pERK; 3 h incubation
T1 construct: pERK HTRF read-out
Description: Inhibition of KRas Phosphorylation of ERK (HTRF) by Exemplary Compounds of Formula (Ia) or (Ib)
Cisbio HTRF Advanced pERK Assay Catalog #64AERPEH • Cells: MKN1, PSN1 • Procedure: • 1. Day 1: Seed 6,000 cells/well −25 μl/well in 384-well white solid bottom plate; RPM1_10% FBS. Incubate overnight at 37 °C/5% CO2. • 2.

KRas G12C = target: T2, KRas G12C (Homo sapiens, UniProt P01116, G12C); assay: KRas binding assay, TR-FRET displacement of Cy5 labelled tracer; settings: 60-minute incubation at room temperature, 1% DMSO, pH 7.5
T2 construct: Biotinylated KRas (corresponding to amino acids 1-169, produced at Accelegan Inc.); biotin (biotinylated); purchased Accelegan Inc
T2 sequence (P01116 1-169 isoform P01116-2 G12C): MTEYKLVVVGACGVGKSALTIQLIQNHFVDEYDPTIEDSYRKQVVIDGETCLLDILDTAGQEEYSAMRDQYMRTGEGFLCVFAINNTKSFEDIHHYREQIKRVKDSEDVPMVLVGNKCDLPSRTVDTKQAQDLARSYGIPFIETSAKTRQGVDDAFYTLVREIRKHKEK
Summary of the method: (§1)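 Displacement measured on KRas residues 1-169 (biotinylated, terbium-streptavidin labelled); 1 h, RT; 1% DMSO final; HEPES pH 7.5 / MgCl2 / Tween-20 / DTT. IC50: 4-parameter fit.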

KRas WT = target: T3, KRas WT (Homo sapiens, UniProt P01116); assay: as above; settings: 60-minute incubation at room temperature, 1% DMSO, pH 7.5
T3 construct: Biotinylated KRas (corresponding to amino acids 1-169, produced at Accelegan Inc.); biotin (biotinylated); purchased Accelegan Inc
T3 sequence (P01116 1-169 isoform P01116-2): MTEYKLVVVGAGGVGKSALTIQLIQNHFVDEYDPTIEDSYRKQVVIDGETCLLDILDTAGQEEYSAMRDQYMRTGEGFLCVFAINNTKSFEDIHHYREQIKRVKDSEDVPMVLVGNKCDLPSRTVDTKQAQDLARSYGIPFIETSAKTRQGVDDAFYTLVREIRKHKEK
Summary of the method: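 Biotinylated KRas (residues 1-169) was incubated with tracer, terbium-streptavidin and compound at 1% DMSO final in 50 mM HEPES pH 7.5 containing 5 mM MgCl2, 0.005% Tween-20 and 1 mM DTT. The plate was read after 60 min at room temperature, and percent-of-control data were fit to a 4-parameter IC50 equation.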

KRas G12S = target: T4, KRas G12S (Homo sapiens, UniProt P01116, G12S); assay: as above; settings: 60-minute incubation at room temperature, 1% DMSO, pH 7.5
T4 construct: Biotinylated KRas (corresponding to amino acids 1-169, produced at Accelegan Inc.); biotin (biotinylated); purchased Accelegan Inc
T4 sequence (P01116 1-169 isoform P01116-2 G12S): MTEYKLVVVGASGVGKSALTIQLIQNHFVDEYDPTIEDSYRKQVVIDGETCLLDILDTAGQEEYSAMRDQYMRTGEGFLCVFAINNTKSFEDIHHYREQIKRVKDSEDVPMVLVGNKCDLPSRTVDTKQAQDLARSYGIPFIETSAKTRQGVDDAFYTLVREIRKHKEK
Summary of the method: as §1

[2] = target: T5, KRas-mediated phosphorylation of ERK in A549 cells (Homo sapiens, UniProt P01116, G12S); assay: Inhibition of KRas-mediated phosphorylation of ERK (HTRF), A549 cells; format: cell-based; settings: HTRF pERK, 3 h incubation
T5 construct: pERK HTRF read-out
T5 sequence (P01116 1-188 isoform P01116-2 G12S): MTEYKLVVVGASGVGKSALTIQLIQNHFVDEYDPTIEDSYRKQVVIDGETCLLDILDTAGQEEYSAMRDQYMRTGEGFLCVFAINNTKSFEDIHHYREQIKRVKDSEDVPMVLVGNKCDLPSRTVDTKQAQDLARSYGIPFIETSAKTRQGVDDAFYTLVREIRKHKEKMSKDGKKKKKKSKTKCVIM

[3] = target: T6, KRas-mediated phosphorylation of ERK in H358 cells (Homo sapiens, UniProt P01116, G12C); assay: Inhibition of KRas-mediated phosphorylation of ERK (HTRF), H358 cells; format: cell-based; settings: HTRF pERK, 3 h incubation
T6 construct: pERK HTRF read-out
T6 sequence (P01116 1-188 isoform P01116-2 G12C): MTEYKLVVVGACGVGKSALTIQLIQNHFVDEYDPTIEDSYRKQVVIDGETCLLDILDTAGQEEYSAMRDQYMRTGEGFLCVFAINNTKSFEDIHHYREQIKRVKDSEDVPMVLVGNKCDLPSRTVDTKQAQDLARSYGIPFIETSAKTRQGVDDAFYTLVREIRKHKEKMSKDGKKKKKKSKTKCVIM

T1 sequence (P01116 1-188 isoform P01116-2): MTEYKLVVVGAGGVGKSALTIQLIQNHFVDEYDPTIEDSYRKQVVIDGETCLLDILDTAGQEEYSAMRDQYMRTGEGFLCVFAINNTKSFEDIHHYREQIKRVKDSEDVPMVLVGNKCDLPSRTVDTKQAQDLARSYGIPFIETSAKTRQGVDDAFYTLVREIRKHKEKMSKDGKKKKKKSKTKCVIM

SMILES: N#Cc1c(N)sc2c(F)ccc(-c3c(Cl)cc4c(N5CCCC(C(=O)n6ccc(C7CC7)n6)CC5)nc(OC[C@@]56CCCN5C[C@H](F)C6)nc4c3F)c12 (stereo partly drawn) [Example 189, 2-amino-4-(6-chloro-4-(4-(3-cyclopropyl-1H-pyrazole-1-carbonyl)azepan-1-yl)-8-fluoro-2-(((2R,7aS)-2-fluorotetrahydro-1H-pyrrolizin-7a(5H)-yl)methoxy)quinazolin-7-yl)-7-fluorobenzo[b]thiophene-3-carbonitrile]
IC50 [1]: 199 nM
IC50 (KRas G12C): 13 nM
IC50 (KRas WT): 24 nM
IC50 (KRas G12S): 8 nM
IC50 [2]: 27 nM
IC50 [3]: 43 nM

SMILES: CON(C)C(=O)C1CCN(c2nc(OC[C@@]34CCCN3C[C@H](F)C4)nc3c(F)c(-c4ccc(F)c5sc(N)c(C#N)c45)c(Cl)cc23)CC1 [Example 242, 1-(7-(2-amino-3-cyano-7-fluorobenzo[b]thiophen-4-yl)-6-chloro-8-fluoro-2-(((2R,7aS)-2-fluorotetrahydro-1H-pyrrolizin-7a(5H)-yl)methoxy)quinazolin-4-yl)-N-methoxy-N-methylpiperidine-4-carboxamide]
IC50 [1]: 17 nM
IC50 (KRas G12C): 14 nM
IC50 (KRas WT): 8 nM
IC50 (KRas G12S): 12 nM
IC50 [2]: 240 nM
IC50 [3]: 149 nM

SMILES: CCc1c(F)ccc2cc(O)cc(-c3ncc4c(N5CCC(C(=O)n6ccc(C(C)(C)C)n6)CC5)nc(OC[C@@]56CCCN5C[C@H](F)C6)nc4c3F)c12 [Example 75, (3-(tert-butyl)-1H-pyrazol-1-yl)(1-(7-(8-ethyl-7-fluoro-3-hydroxynaphthalen-1-yl)-8-fluoro-2-(((2R,7aS)-2-fluorotetrahydro-1H-pyrrolizin-7a(5H)-yl)methoxy)pyrido[4,3-d]pyrimidin-4-yl)piperidin-4-yl)methanone]
IC50 [1]: 1390 nM
IC50 (KRas G12C): 234 nM
IC50 (KRas WT): 378 nM
IC50 (KRas G12S): 346 nM
IC50 [2]: 312 nM
IC50 [3]: 3110 nM

SMILES: CN(CCCC(=O)N(C)c1ccccn1)c1nc(OC[C@@]23CCCN2C[C@H](F)C3)nc2c(F)c(-c3ccc(F)c4sc(N)c(C#N)c34)c(Cl)cc12 [Example 200, 4-((7-(2-amino-3-cyano-7-fluorobenzo[b]thiophen-4-yl)-6-chloro-8-fluoro-2-(((2R,7aS)-2-fluorotetrahydro-1H-pyrrolizin-7a(5H)-yl)methoxy)quinazolin-4-yl)(methyl)amino)-N-methyl-N-(pyridin-2-yl) butanamide]
IC50 [1]: 86 nM
IC50 (KRas G12C): 2 nM
IC50 (KRas WT): 5 nM
IC50 (KRas G12S): 4 nM
IC50 [2]: 729 nM
IC50 [3]: 112 nM

SMILES: CCc1c(F)ccc2cc(O)cc(-c3ncc4c(N(C)CCCC(=O)n5ccc(C)n5)nc(OC[C@@]56CCCN5C[C@H](F)C6)nc4c3F)c12 [Example 110, 4-((7-(8-ethyl-7-fluoro-3-hydroxynaphthalen-1-yl)-8-fluoro-2-(((2R,7aS)-2-fluorotetrahydro-1H-pyrrolizin-7a(5H)-yl)methoxy)pyrido[4,3-d]pyrimidin-4-yl)(methyl)amino)-1-(3-methyl-1H-pyrazol-1-yl) butan-1-one]
IC50 [1]: 1320 nM
IC50 (KRas G12C): < 2 nM
IC50 (KRas WT): 58 nM
IC50 (KRas G12S): < 2 nM
IC50 [2]: 12 nM
IC50 [3]: 91 nM

SMILES: Cc1ccn(C(=O)C2CCCN(c3nc(OC[C@@]45CCCN4C[C@H](F)C5)nc4c(F)c(-c5ccc(F)c6sc(N)c(C#N)c56)c(Cl)cc34)C2)n1 (stereo partly drawn) [Example 132, 2-amino-4-(6-chloro-8-fluoro-2-(((2R,7aS)-2-fluorotetrahydro-1H-pyrrolizin-7a(5H)-yl)methoxy)-4-(3-(3-methyl-1H-pyrazole-1-carbonyl)piperidin-1-yl)quinazolin-7-yl)-7-fluorobenzo[b]thiophene-3-carbonitrile]
IC50 [1]: 404 nM
IC50 (KRas G12C): 19 nM
IC50 (KRas WT): 25 nM
IC50 (KRas G12S): 17 nM
IC50 [2]: > 10000 nM
IC50 [3]: 1200 nM

SMILES: CN(C(=O)CCCN(C)c1nc(OC[C@@]23CCCN2C[C@H](F)C3)nc2c(F)c(-c3ccc(F)c4sc(N)c(C#N)c34)c(Cl)cc12)C(=O)c1cnn(C)c1 [Example 306, N-(4-((7-(2-amino-3-cyano-7-fluorobenzo[b]thiophen-4-yl)-6-chloro-8-fluoro-2-(((2R,7aS)-2-fluorotetrahydro-1H-pyrrolizin-7a(5H)-yl)methoxy)quinazolin-4-yl)(methyl)amino)butanoyl)-N, 1-dimethyl-1H-pyrazole-4-carboxamide]
IC50 [1]: 134 nM
IC50 (KRas G12C): 5 nM
IC50 (KRas WT): 10 nM
IC50 (KRas G12S): 7 nM
IC50 [2]: 92 nM
IC50 [3]: 45 nM

The remaining compounds from weak to strong by IC50 [1], led by results:

IC50 [1]: 7430 nM
IC50 (KRas G12C): 93 nM
IC50 (KRas WT): 1190 nM
IC50 (KRas G12S): 11 nM
IC50 [2]: 57 nM
IC50 [3]: 1540 nM
SMILES: CCc1c(F)ccc2cc(O)cc(-c3ncc4c(N5C[C@H]6C[C@@H](C(=O)n7ccc(C)n7)C[C@H]6C5)nc(OC[C@@]56CCCN5C[C@H](F)C6)nc4c3F)c12 [Example 128, ((3aR,5S,6aS)-2-(7-(8-ethyl-7-fluoro-3-hydroxynaphthalen-1-yl)-8-fluoro-2-(((2R,7aS)-2-fluorotetrahydro-1H-pyrrolizin-7a(5H)-yl)methoxy)pyrido[4,3-d]pyrimidin-4-yl)octahydrocyclopenta[c]pyrrol-5-yl)(3-methyl-1H-pyrazol-1-yl)methanone]

IC50 [1]: 540 nM
IC50 (KRas G12C): 2 nM
IC50 (KRas WT): 7 nM
IC50 (KRas G12S): 4 nM
IC50 [2]: 25 nM
IC50 [3]: 59 nM
SMILES: CN(C)Cc1ccn(C(=O)C2CCCN(c3nc(OC[C@@]45CCCN4C[C@H](F)C5)nc4c(F)c(-c5ccc(F)c6sc(N)c(C#N)c56)c(Cl)cc34)CC2)n1 (stereo partly drawn) [Example 205, 2-amino-4-(6-chloro-4-(4-(3-((dimethylamino)methyl)-1H-pyrazole-1-carbonyl)azepan-1-yl)-8-fluoro-2-(((2R,7aS)-2-fluorotetrahydro-1H-pyrrolizin-7a(5H)-yl)methoxy)quinazolin-7-yl)-7-fluorobenzo[b]thiophene-3-carbonitrile]

IC50 [1]: 246 nM
IC50 (KRas G12C): 9 nM
IC50 (KRas WT): 143 nM
IC50 (KRas G12S): 20 nM
IC50 [2]: 77 nM
IC50 [3]: 24 nM
SMILES: N#Cc1c(N)sc2c(F)ccc(-c3c(Cl)cc4c(N5CCC(C(=O)Oc6ccccc6F)CC5)nc(OC[C@@]56CCCN5C[C@H](F)C6)nc4c3F)c12 [Example 288, 2-fluorophenyl 1-(7-(2-amino-3-cyano-7-fluorobenzo[b]thiophen-4-yl)-6-chloro-8-fluoro-2-(((2R,7aS)-2-fluorotetrahydro-1H-pyrrolizin-7a(5H)-yl)methoxy)quinazolin-4-yl)piperidine-4-carboxylate]

IC50 [1]: 200 nM
IC50 (KRas G12C): 11 nM
IC50 (KRas WT): 10 nM
IC50 (KRas G12S): 8 nM
IC50 [2]: 7 nM
IC50 [3]: 7 nM
SMILES: Cc1ccn(C(=O)C2CCCN(c3nc(OC[C@@]45CCCN4C[C@H](F)C5)nc4c(F)c(-c5ccc(F)c6sc(N)c(C#N)c56)c(Cl)cc34)CC2)n1 (stereo partly drawn) [Example 130, 2-amino-4-(6-chloro-8-fluoro-2-(((2R,7aS)-2-fluorotetrahydro-1H-pyrrolizin-7a(5H)-yl)methoxy)-4-(4-(3-methyl-1H-pyrazole-1-carbonyl)azepan-1-yl)quinazolin-7-yl)-7-fluorobenzo[b]thiophene-3-carbonitrile]

IC50 [1]: 179 nM
IC50 (KRas G12C): 34 nM
IC50 (KRas WT): 23 nM
IC50 (KRas G12S): 28 nM
IC50 [2]: 3410 nM
IC50 [3]: 499 nM
SMILES: CCc1c(F)ccc2cc(O)cc(-c3ncc4c(N5CCN(C(=O)n6ccc(C)n6)C(C)C5)nc(OC[C@@]56CCCN5C[C@H](F)C6)nc4c3F)c12 (stereo partly drawn) [Example 82, (4-(7-(8-ethyl-7-fluoro-3-hydroxynaphthalen-1-yl)-8-fluoro-2-(((2R,7aS)-2-fluorotetrahydro-1H-pyrrolizin-7a(5H)-yl)methoxy)pyrido[4,3-d]pyrimidin-4-yl)-2-methylpiperazin-1-yl)(3-methyl-1H-pyrazol-1-yl)methanone]

IC50 [1]: 134 nM
IC50 (KRas G12C): 6 nM
IC50 (KRas WT): 12 nM
IC50 (KRas G12S): 7 nM
IC50 [2]: 65 nM
IC50 [3]: 81 nM
SMILES: CCN(C(C)=O)C(=O)CCCN(C)c1nc(OC[C@@]23CCCN2C[C@H](F)C3)nc2c(F)c(-c3ccc(F)c4sc(N)c(C#N)c34)c(Cl)cc12 [Example 291, N-acetyl-4-((7-(2-amino-3-cyano-7-fluorobenzo[b]thiophen-4-yl)-6-chloro-8-fluoro-2-(((2R,7aS)-2-fluorotetrahydro-1H-pyrrolizin-7a(5H)-yl)methoxy)quinazolin-4-yl)(methyl)amino)-N-ethylbutanamide]

IC50 [1]: 4 nM
IC50 (KRas G12C): 3 nM
IC50 (KRas WT): 4 nM
IC50 (KRas G12S): 3 nM
IC50 [2]: 59 nM
IC50 [3]: 14 nM
SMILES: CN1CC2(CCN(c3nc(OC[C@@]45CCCN4C[C@H](F)C5)nc4c(F)c(-c5ccc(F)c6sc(N)c(C#N)c56)c(Cl)cc34)CC2)C1=O [Example 303, 2-amino-4-(6-chloro-8-fluoro-2-(((2R,7aS)-2-fluorotetrahydro-1H-pyrrolizin-7a(5H)-yl)methoxy)-4-(2-methyl-1-oxo-2,7-diazaspiro[3.5]nonan-7-yl)quinazolin-7-yl)-7-fluorobenzo[b]thiophene-3-carbonitrile]
